From US9738610B2, “Indazole derivatives and uses thereof” (Whitehead Institute for Biomedical Research, priority 2012, dated 2017)

System: Hsp90
Assay: Hsp90 binning reporter assay
Format: cell-based
Conditions: Saccharomyces cerevisiae, read-out: Hsp90 pathway inhibition IC50
Procedure: Corning white, 384-well plates were obtained from Corning (Catalog No. 8867BC; Lot No. 22609019). Tropix Gal-Screen was obtained from Applied Biosystems (Catalog No. T2359; Lot No. 0903044).
SD Growth Media was obtained from MP Biomedical (Catalog No. 4027-012; Lot No. 119458). Complete Supplement minus adenine was obtained from Sunrise Science (Catalog No. 1029-100; Lot No. 070409). Deoxycorticosterone (DOC) steroid was obtained from Sigma. To prepare the assay media, 100 ml (20% (w/v) dextrose and 780 mg Complete Supplement) was added to 100 ml SD Growth Media. Water was added to a final volume of 1 liter, and the solution was filter sterilized.
For DOC media, 1 ml DOC was added to 100 ml SD-ADE media.
The following test strain was used in this study: Saccharomyces cerevisiae W303 reporter strain (ATCC 201238). […]
The OD 600 of 1 ml of culture in a cuvette was read using a standard optical density reader with growth medium as a background blank. […] Luminescence of the wells was read on a standard plate reader as a measure of relative fungal growth. Envision (Perkin Elmer) plate reader set-up: Top read; Luminescence filter (560 nm) at 0.1 seconds.
Potential inhibition of the Hsp90-based chaperone machinery was evaluated using yeast reporter assays involving the glucocorticoid hormone receptor and the tyrosine kinase, v-Src. […]

COC(=O)Cn1nc(-c2cccc(OC)c2)c2ccccc21 [Compound I-4, methyl 2-(3-(3-methoxyphenyl)-1H-indazol-1-yl)acetate]
IC50: 4.18 µM
